Measurements published in ChEMBL document CHEMBL5113452, “Synthesis and biological evaluation of hybrids from optically active ring-opened 3-N-butylphthalide derivatives and 4-fluro-edaravone as potential anti-acute ischemic stroke agents” (Bioorg Med Chem, 2022).
The source made the active and inactive calls. The calls are words filed in the database; no cut-off is given here.

What was measured:
Rattus norvegicus [1] = test: Neuroprotective activity against transient middle cerebral artery occlusion induced ischemia stroke Sprague-Dawley rat model assessed as increase in neuro-fucntional score at 4.53 mg/kg, iv and measured after 24 hrs by longa's method; format: functional, organism-based
[2] = AUMC (0-infinity) in Sprague-Dawley rat plasma at 4.53 mg/kg, iv and measured upto 24 hrs by LC-MS/MS analysis; format: ADME, organism-based; conditions: in vivo
[3] = AUC (0-t) in Sprague-Dawley rat plasma at 4.53 mg/kg, iv and measured upto 24 hrs in presence of S-NBP by LC-MS/MS analysis; format: ADME, organism-based; set-up: time < 24 hrs, dose 4.53 mg/kg, route iv
[4] = AUMC (0-infinity) in Sprague-Dawley rat plasma at 4.53 mg/kg, iv and measured upto 24 hrs in presence of S-NBP by LC-MS/MS analysis; format: ADME, organism-based; conditions: in vivo
[5] = AUC (0-infinity) in Sprague-Dawley rat plasma at 4.53 mg/kg, iv and measured upto 24 hrs in presence of S-NBP by LC-MS/MS analysis; format: ADME, organism-based; set-up: time < 24 hrs, dose 4.53 mg/kg, route iv
[6] = AUC (0-t) in Sprague-Dawley rat plasma at 4.53 mg/kg, iv and measured upto 24 hrs by LC-MS/MS analysis; format: ADME, organism-based; set-up: dose 4.53 mg/kg, time < 24 hrs, route iv
[7] = MRT in Sprague-Dawley rat plasma at 4.53 mg/kg, iv and measured upto 24 hrs by LC-MS/MS analysis; format: ADME, organism-based
Rattus norvegicus [8] = test: Neuroprotective activity against transient middle cerebral artery occlusion induced cerebral infraction Sprague-Dawley rat model assessed as decrease in cerebral infraction volume at 4.10 mg/kg, iv and measured after 24 hrs in presence of NBP by TTC staining based assay; format: functional; set-up: scale not given: the % may be the effect or the level left; conditions: dose 4.1 mg/kg
[9] = Half life in Sprague-Dawley rat plasma at 4.53 mg/kg, iv and measured upto 24 hrs in presence of S-NBP by LC-MS/MS analysis; format: ADME, organism-based
[10] = Volume of distribution at steady state in Sprague-Dawley rat plasma at 4.53 mg/kg, iv and measured upto 24 hrs in presence of S-NBP by LC-MS/MS analysis; format: ADME, organism-based; conditions: read-out: Vdss
[11] = Volume of distribution at steady state in Sprague-Dawley rat plasma at 4.53 mg/kg, iv and measured upto 24 hrs by LC-MS/MS analysis; format: ADME, organism-based; conditions: read-out: Vdss
[12] = Toxicity in transient middle cerebral artery occlusion induced ischemia stroke Sprague-Dawley rat model assessed as change in body weight at 4.53 mg/kg, iv and measured after 24 hrs in presence of S-APB; format: organism-based; conditions: in vivo
[13] = AUC (0-infinity) in Sprague-Dawley rat plasma at 4.53 mg/kg, iv and measured upto 24 hrs by LC-MS/MS analysis; format: ADME, organism-based; set-up: time < 24 hrs, dose 4.53 mg/kg, route iv
[14] = AUMC (0-t) in Sprague-Dawley rat plasma at 4.53 mg/kg, iv and measured upto 24 hrs by LC-MS/MS analysis; format: ADME, organism-based; conditions: in vivo
[15] = Clearance in Sprague-Dawley rat plasma at 4.53 mg/kg, iv and measured upto 24 hrs by LC-MS/MS analysis; format: ADME, organism-based
[16] = Clearance in Sprague-Dawley rat plasma at 4.53 mg/kg, iv and measured upto 24 hrs in presence of S-NBP by LC-MS/MS analysis; format: ADME, organism-based
[17] = Toxicity in transient middle cerebral artery occlusion induced ischemia stroke Sprague-Dawley rat model assessed as change in body weight at 4.10 mg/kg, iv and measured after 24 hrs in presence of NBP; format: organism-based; conditions: in vivo, 4.1 mg/kg
Rattus norvegicus [18] = test: Neuroprotective activity against transient middle cerebral artery occlusion induced cerebral infraction Sprague-Dawley rat model assessed as decrease in cerebral infraction volume at 4.53 mg/kg, iv and measured after 24 hrs in presence of S-APB by TTC staining based assay; format: functional; set-up: scale not given: the % may be the effect or the level left
[19] = AUMC (0-t) in Sprague-Dawley rat plasma at 4.53 mg/kg, iv and measured upto 24 hrs in presence of S-NBP by LC-MS/MS analysis; format: ADME, organism-based; conditions: in vivo
[20] = Cmax in Sprague-Dawley rat plasma at 4.53 mg/kg, iv and measured upto 24 hrs in presence of S-NBP by LC-MS/MS analysis; format: ADME, organism-based; set-up: time < 24 hrs, dose 4.53 mg/kg, route iv
[21] = Toxicity in transient middle cerebral artery occlusion induced ischemia stroke Sprague-Dawley rat model assessed as change in body weight at 4.53 mg/kg, iv and measured after 24 hrs; format: organism-based; conditions: in vivo
Rattus norvegicus [22] = test: Neuroprotective activity against transient middle cerebral artery occlusion induced cerebral infraction Sprague-Dawley rat model assessed as decrease in brain edema at 4.10 mg/kg, iv and measured after 24 hrs in presence of NBP; format: functional, organism-based; conditions: dose 4.1 mg/kg
Rattus norvegicus [23] = test: Neuroprotective activity against transient middle cerebral artery occlusion induced ischemia stroke Sprague-Dawley rat model assessed as increase in neuro-fucntional score at 4.10 mg/kg, iv and measured after 24 hrs in presence of NBP by longa's method; format: functional, organism-based; conditions: dose 4.1 mg/kg
[24] = C0 in Sprague-Dawley rat plasma at 4.53 mg/kg, iv and measured upto 24 hrs in presence of S-NBP by LC-MS/MS analysis; format: ADME, organism-based
[25] = Half life in Sprague-Dawley rat plasma at 4.53 mg/kg, iv and measured upto 24 hrs by LC-MS/MS analysis; format: ADME, organism-based
Rattus norvegicus [26] = test: Neuroprotective activity against transient middle cerebral artery occlusion induced cerebral infraction Sprague-Dawley rat model assessed as decrease in cerebral infraction volume at 4.53 mg/kg, iv and measured after 24 hrs by TTC staining based assay; format: functional; set-up: scale not given: the % may be the effect or the level left
Rattus norvegicus [27] = test: Neuroprotective activity against transient middle cerebral artery occlusion induced ischemia stroke Sprague-Dawley rat model assessed as increase in neuro-fucntional score at 4.53 mg/kg, iv and measured after 24 hrs in presence of S-APB by longa's method; format: functional, organism-based
[28] = Elimination rate constant in Sprague-Dawley rat plasma at 4.53 mg/kg, iv and measured upto 24 hrs in presence of S-NBP by LC-MS/MS analysis; format: ADME, organism-based
Rattus norvegicus [29] = test: Neuroprotective activity against transient middle cerebral artery occlusion induced cerebral infraction Sprague-Dawley rat model assessed as decrease in brain edema at 4.53 mg/kg, iv and measured after 24 hrs in presence of […]; format: functional, organism-based
[30] = Elimination rate constant in Sprague-Dawley rat plasma at 4.53 mg/kg, iv and measured upto 24 hrs by LC-MS/MS analysis; format: ADME, organism-based
[31] = MRT in Sprague-Dawley rat plasma at 4.53 mg/kg, iv and measured upto 24 hrs in presence of S-NBP by LC-MS/MS analysis; format: ADME, organism-based
[32] = Cmax in Sprague-Dawley rat plasma at 4.53 mg/kg, iv and measured upto 24 hrs by LC-MS/MS analysis; format: ADME, organism-based; set-up: dose 4.53 mg/kg, time < 24 hrs, route iv
[33] = C0 in Sprague-Dawley rat plasma at 4.53 mg/kg, iv and measured upto 24 hrs by LC-MS/MS analysis; format: ADME, organism-based

With CC1=NN(c2ccc(F)cc2)C(=O)C1 the Activity (Rattus norvegicus [1]) was “Active”, the AUMC [2] was 982 hr.hr.ng/ml and the AUC(0-t) at 24 h [3] was 2750 ng·h/mL. It also gave an AUMC [4] of 5830 hr.hr.ng/ml, an AUC(0-inf) [5] of 2780 ng·h/mL and an AUC(0-t) at 24 h [6] of 1350 ng·h/mL. It also gave an MRT [7] of 0.717 h, an Activity (Rattus norvegicus [8]) of 57.7% and a half-life [9] of 5.16 h. The Vd [10] was 3.45 L/kg, the Vd [11] was 2.39 L/kg and the Activity [12] was “Non-Toxic”. For the same molecule, the AUC(0-inf) [13] was 1360 ng·h/mL, the AUMCt [14] was 903 hr.hr.ng/ml and the clearance [15] was 55.9 mL/min/kg. The clearance [16] was 27.4 mL/min/kg, the Activity [17] was “Non-Toxic” and the Activity (Rattus norvegicus [18]) was 68.37%. For the same molecule, the AUMCt [19] was 4690 hr.hr.ng/ml, the Cmax [20] was 6100 ng/mL and the Activity [21] was “Non-Toxic”. The Activity (Rattus norvegicus [22]) was “Active”, the Activity (Rattus norvegicus [23]) was “Active” and the C0 at 24 h [24] was 12400 ng/mL. The half-life [25] was 1.14 h, the Activity (Rattus norvegicus [26]) was 32.46% and the Activity (Rattus norvegicus [27]) was “Active”. For the same molecule, the k el at 24 h [28] was 3.75e-05 s⁻¹, the Activity (Rattus norvegicus [29]) was “Active” and the k el at 24 h [30] was 0.000171 s⁻¹. For the same molecule, the MRT [31] was 2.1 h, the Cmax [32] was 2960 ng/mL and the C0 at 24 h [33] was 4910 ng/mL.
